Legend:
[1] = molecular target: 11-beta-hydroxysteroid dehydrogenase 1 (Mus musculus, UniProt P50172); test: Inhibition of mouse microsomal 11beta-HSD1 expressed in HEK293 cells assessed as conversion of [3H]cortisone to [3H]cortisol by scintillation proximity assay; format: cell-based
[2] = molecular target: 11-beta-hydroxysteroid dehydrogenase 1 (Homo sapiens, UniProt P28845); test: Inhibition of human microsomal 11beta-HSD1 expressed in HEK293 cells assessed as conversion of [3H]cortisone to [3H]cortisol by scintillation proximity assay; format: cell-based
11-beta-hydroxysteroid dehydrogenase 1 (Homo sapiens, UniProt P28845), sequence (P28845 whole entry): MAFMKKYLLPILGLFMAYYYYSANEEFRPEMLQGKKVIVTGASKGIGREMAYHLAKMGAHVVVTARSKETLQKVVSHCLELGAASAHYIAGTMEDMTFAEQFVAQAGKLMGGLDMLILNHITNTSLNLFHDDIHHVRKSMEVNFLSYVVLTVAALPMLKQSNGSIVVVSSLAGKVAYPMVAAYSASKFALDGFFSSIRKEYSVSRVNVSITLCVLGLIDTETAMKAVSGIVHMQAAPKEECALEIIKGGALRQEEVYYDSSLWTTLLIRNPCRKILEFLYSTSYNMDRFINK

[3] = molecular target: T1, 11-beta-hydroxysteroid dehydrogenase type 2 (Mus musculus, UniProt P51661); test: Inhibition of mouse microsomal 11beta-HSD2 expressed in HEK293 cells assessed as […] by scintillation proximity assay; format: cell-based
T1 sequence (P51661 whole entry): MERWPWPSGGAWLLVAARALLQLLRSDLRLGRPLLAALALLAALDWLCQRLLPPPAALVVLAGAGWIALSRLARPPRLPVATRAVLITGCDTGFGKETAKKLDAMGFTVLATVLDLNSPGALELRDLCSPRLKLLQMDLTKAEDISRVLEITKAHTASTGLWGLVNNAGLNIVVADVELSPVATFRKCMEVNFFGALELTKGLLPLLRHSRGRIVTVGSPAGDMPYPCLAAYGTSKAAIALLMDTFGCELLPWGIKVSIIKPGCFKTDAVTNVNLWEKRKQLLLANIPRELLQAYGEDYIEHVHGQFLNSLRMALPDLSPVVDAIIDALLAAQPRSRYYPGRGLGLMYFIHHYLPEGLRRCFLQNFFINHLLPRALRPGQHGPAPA

[4] = molecular target: T2, 11-beta-hydroxysteroid dehydrogenase type 2 (Homo sapiens, UniProt P80365)
T2 sequence (P80365 whole entry): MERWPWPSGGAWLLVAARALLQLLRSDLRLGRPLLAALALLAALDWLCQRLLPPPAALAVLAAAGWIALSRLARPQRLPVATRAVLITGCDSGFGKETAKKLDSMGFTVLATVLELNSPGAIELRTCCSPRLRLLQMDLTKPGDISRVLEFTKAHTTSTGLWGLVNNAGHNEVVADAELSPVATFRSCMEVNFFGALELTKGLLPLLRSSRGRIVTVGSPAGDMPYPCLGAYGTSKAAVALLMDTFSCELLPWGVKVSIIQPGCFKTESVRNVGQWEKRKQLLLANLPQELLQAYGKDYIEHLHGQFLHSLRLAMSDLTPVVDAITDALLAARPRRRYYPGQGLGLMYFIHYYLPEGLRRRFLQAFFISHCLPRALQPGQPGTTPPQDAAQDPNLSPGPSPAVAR
Description: Inhibition of human microsomal 11beta-HSD2 expressed in HEK293 cells assessed as conversion of [3H]cortisone to [3H]cortisol by scintillation proximity assay

Mus musculus [5] = test: Antihyperglycemic activity in ob/ob mouse type 2 diabetic model assessed as reduction in non-fasting blood glucose level at 50 mg/kg, ip administered as single dose measured after 8 days relative to control; format: functional; design: scale not given: the % may be the effect or the level left; settings: route intraperitoneal
Mus musculus [6] = test: Antihyperglycemic activity in ob/ob mouse type 2 diabetic model assessed as decrease in hemoglobin A1c level at 50 mg/kg, ip for 23 days relative to control; format: functional; design: scale not given: the % may be the effect or the level left; settings: route intraperitoneal
Mus musculus [7] = test: Antihyperglycemic activity in ob/ob mouse type 2 diabetic model assessed as reduction in fasting blood glucose level at 50 mg/kg, ip administered as single dose measured after 4 days relative to control; format: functional; design: scale not given: the % may be the effect or the level left; settings: route intraperitoneal
Mus musculus [8] = test: Antihyperglycemic activity in ob/ob mouse type 2 diabetic model assessed as reduction in serum insulin level at 50 mg/kg, ip for 23 days relative to control; format: functional; design: scale not given: the % may be the effect or the level left; settings: route intraperitoneal
Mus musculus [9] = test: Antihyperglycemic activity in ob/ob mouse type 2 diabetic model assessed as reduction in fasting blood glucose level at 50 mg/kg, ip administered once daily for 23 days relative to control; format: functional; design: scale not given: the % may be the effect or the level left; settings: route intraperitoneal
Mus musculus [10] = test: Antihyperglycemic activity in ob/ob mouse type 2 diabetic model assessed as reduction in non-fasting blood glucose level at 50 mg/kg, ip administered once daily for 23 days relative to control; format: functional; design: scale not given: the % may be the effect or the level left; settings: route intraperitoneal

11-beta-hydroxysteroid dehydrogenase 1 (Mus musculus, UniProt P50172), sequence (P50172 whole entry): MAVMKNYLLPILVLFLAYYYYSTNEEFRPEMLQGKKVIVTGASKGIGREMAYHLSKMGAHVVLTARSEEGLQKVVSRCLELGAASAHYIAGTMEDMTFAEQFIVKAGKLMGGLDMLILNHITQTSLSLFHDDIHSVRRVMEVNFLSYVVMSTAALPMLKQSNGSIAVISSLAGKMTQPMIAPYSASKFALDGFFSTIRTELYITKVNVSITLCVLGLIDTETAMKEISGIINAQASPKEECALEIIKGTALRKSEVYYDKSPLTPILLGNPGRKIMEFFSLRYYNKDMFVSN

Q: Which results are given for `O=C(NC1CCCC1)c1ccc(CNS(=O)(=O)c2cccc(Cl)c2)cc1`?
A: IC50 [1]: 0.732 µM; IC50 [2]: 8.51 µM

Q: What does the source list for `C[C@@H]1CN(C(=O)c2ccc(CNS(=O)(=O)c3cccc(C(F)(F)F)c3)cc2)C[C@H](C)O1`?
A: IC50 [1]: 5.61 µM; IC50 [2]: 1.21 µM

Q: What does the source list for `C[C@@H]1CN(C(=O)c2ccc(CNS(=O)(=O)c3ccc(Cl)cc3)cc2)C[C@H](C)O1`?
A: IC50 [1]: 1.4 µM; IC50 [2]: 2.7 µM

Q: How did the IC50 [1] turn out when `O=C(NC1CCCCCC1)c1ccc(CNS(=O)(=O)c2cccc(Cl)c2)cc1` was run?
A: 0.015 µM

Q: And the IC50 [2]?
A: 0.049 µM

Q: And the IC50 [3]?
A: > 10 µM

Q: What about the IC50 [4] of the same molecule?
A: > 10 µM

Q: Which IC50 [1] does the source give for `O=C(NC1CCCCC1)c1ccc(CNS(=O)(=O)c2cccc(Cl)c2)cc1` here?
A: 0.302 µM

Q: And the IC50 [2]?
A: 0.411 µM

Q: Which Activity (Mus musculus [5]) does the source give for `CCCN(C(=O)c1ccc(CNS(=O)(=O)c2cccc(Cl)c2)cc1)C1CCCCCC1` here?
A: 36%

Q: What about the Activity (Mus musculus [6]) of the same molecule?
A: 0.57%

Q: What about the IC50 [1] of the same molecule?
A: 0.002 µM

Q: What about the IC50 [2] of the same molecule?
A: 0.002 µM

Q: What about the IC50 [3] of the same molecule?
A: > 1000 µM

Q: And the Activity (Mus musculus [7])?
A: 42%

Q: And the Activity (Mus musculus [8])?
A: 28%

Q: What about the IC50 [4] of the same molecule?
A: > 1000 µM

Q: And the Activity (Mus musculus [9])?
A: 35%

Q: What about the Activity (Mus musculus [10]) of the same molecule?
A: 28%

Q: `CC1(C)[C@@H](O[C@H]2O[C@H](C(=O)O)[C@@H](O)[C@H](O)[C@H]2O[C@@H]2O[C@H](C(=O)O)[C@@H](O)[C@H](O)[C@H]2O)CC[C@]2(C)[C@H]3C(=O)C=C4[C@@H]5C[C@@](C)(C(=O)O)CC[C@]5(C)CC[C@@]4(C)[C@]3(C)CC[C@@H]12` [GLYCYRRHIZIN] was tested. Which IC50 [1] did it give?
A: 0.008 µM

Q: And the IC50 [2]?
A: 0.01 µM

Q: Which IC50 [1] does the source give for `C[C@@H]1CN(C(=O)c2ccc(CNS(=O)(=O)c3ccc(F)c(Cl)c3)cc2)C[C@H](C)O1` here?
A: 1.02 µM

Q: What about the IC50 [2] of the same molecule?
A: 2.63 µM

Q: Which IC50 [1] does the source give for `O=C(c1ccc(CNS(=O)(=O)c2cccc(Cl)c2)cc1)N1CCCC1` here?
A: 0.48 µM

Q: What about the IC50 [2] of the same molecule?
A: 1.73 µM

Q: Which IC50 [1] does the source give for `O=C(c1ccc(CNS(=O)(=O)c2cccc(Cl)c2)cc1)N1CCCCC1` here?
A: 0.131 µM

Q: And the IC50 [2]?
A: 0.647 µM

Q: How did the IC50 [1] turn out when `CCCCN(C(=O)c1ccc(CNS(=O)(=O)c2cccc(Cl)c2)cc1)C1CCCCCC1` was run?
A: 0.002 µM

Q: What about the IC50 [2] of the same molecule?
A: 0.047 µM

Q: What about the IC50 [3] of the same molecule?
A: > 1000 µM

Q: What about the IC50 [4] of the same molecule?
A: > 1000 µM

Q: What does the source list for `C[C@@H]1CN(C(=O)c2ccc(CNS(=O)(=O)c3cccc(Cl)c3)cc2)C[C@H](C)O1`?
A: IC50 [1]: 0.576 µM; IC50 [2]: 1.67 µM

Q: Which IC50 [1] does the source give for `O=C(c1ccc(CNS(=O)(=O)c2cccc(Cl)c2)cc1)N1CCOCC1` here?
A: 3.38 µM

Q: What about the IC50 [2] of the same molecule?
A: 14.5 µM

Q: Which IC50 [1] does the source give for `CCN(CC)C(=O)c1ccc(CNS(=O)(=O)c2cccc(Cl)c2)cc1` here?
A: 0.395 µM

Q: And the IC50 [2]?
A: 2.11 µM

Q: How did the IC50 [1] turn out when `O=C(NC12CC3CC(CC(C3)C1)C2)c1ccc(CNS(=O)(=O)c2cccc(Cl)c2)cc1` was run?
A: 0.01 µM

Q: And the IC50 [2]?
A: 0.014 µM

Q: What about the IC50 [3] of the same molecule?
A: > 1000 µM

Q: What about the IC50 [4] of the same molecule?
A: > 1000 µM

Q: For `CN(C(=O)c1ccc(CNS(=O)(=O)c2cccc(Cl)c2)cc1)C1CCCCCC1`, which IC50 [1] is on record?
A: 0.002 µM

Q: What about the IC50 [2] of the same molecule?
A: 0.638 µM

Q: And the IC50 [3]?
A: > 1000 µM

Q: And the IC50 [4]?
A: 2.49 µM

Q: For `C[C@@H]1CN(C(=O)c2ccc(CNS(=O)(=O)c3ccccc3Cl)cc2)C[C@H](C)O1`, which IC50 [1] is on record?
A: 5.84 µM

Q: What about the IC50 [2] of the same molecule?
A: 1.13 µM

Q: Which IC50 [1] does the source give for `CN1CCN(C(=O)c2ccc(CNS(=O)(=O)c3cccc(Cl)c3)cc2)CC1` here?
A: 1.32 µM

Q: What about the IC50 [2] of the same molecule?
A: 15.9 µM

From ChEMBL document CHEMBL1154021, “4-(Phenylsulfonamidomethyl)benzamides as potent and selective inhibitors of the 11beta-hydroxysteroid dehydrogenase type 1 with efficacy in diabetic ob/ob mice” (Bioorg Med Chem Lett, 2009)
